Key:
Assay in all cases: relative viability (nuclei count vs DMSO), 5 days (fraction); higher = more cells survive
[1] = compound: O=C(C[C@H]1NCCC[C@@H]1O)Cn1cnc2cc(Br)c(Cl)cc2c1=O (racemic) [Halofuginone] + COc1cccc2cc(-c3nc([C@H]4CC[C@H](C(=O)O)CC4)n4ncnc(N)c34)[nH]c12 [OSI-027] (partner 0.5 µM)
Method in brief: (§1)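 Relative viability was taken as the ratio of nuclei in treated wells to nuclei in vehicle wells. Lung cancer cell lines in 1536-well plates received compounds by pin tool one day after seeding, either one drug alone or a fixed anchor-drug dose plus five library-drug doses (not always all listed) in √10 steps. Nuclei were counted on 4× images after 5 days of treatment, and values are medians of duplicate plates.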

[2] = compound: COc1cc2c(Oc3ccc4[nH]c(C)cc4c3F)ncnc2cc1OCCCN1CCCC1 [Cediranib] + Nc1nc2[nH]cc(CCc3ccc(C(=O)N[C@@H](CCC(=O)O)C(=O)O)cc3)c2c(=O)[nH]1 [Pemetrexed] (partner 0.2 µM)
Method in brief: as §1

[3] = compound: O=C(C[C@H]1NCCC[C@@H]1O)Cn1cnc2cc(Br)c(Cl)cc2c1=O (racemic) [Halofuginone] + C[C@]1(O)C[C@@H](c2nc(-c3ccc4ccc(-c5ccccc5)nc4c3)c3c(N)nccn32)C1 [Linsitinib] (partner 1 µM)
Method in brief: as §1

[4] = compound: COc1cc2c(Oc3ccc4[nH]c(C)cc4c3F)ncnc2cc1OCCCN1CCCC1 [Cediranib] + CS(=O)(=O)N1CCN(Cc2cc3nc(-c4cccc5[nH]ncc45)nc(N4CCOCC4)c3s2)CC1 [Pictilisib] (partner 1 µM)
Method in brief: as §1

Cell Line | relative viability ([1]; first compound 0.001 µM) | relative viability ([1]; first compound 0.003162 µM) | relative viability ([1]; first compound 0.01 µM) | relative viability ([1]; first compound 0.03162 µM) | relative viability ([1]; first compound 0.1 µM) | relative viability ([2]; first compound 0.04 µM) | relative viability ([2]; first compound 0.1265 µM) | relative viability ([2]; first compound 0.4 µM) | relative viability ([2]; first compound 1.265 µM) | relative viability ([2]; first compound 4 µM) | relative viability ([3]; first compound 0.001 µM) | relative viability ([3]; first compound 0.003162 µM) | relative viability ([3]; first compound 0.01 µM) | relative viability ([3]; first compound 0.03162 µM) | relative viability ([3]; first compound 0.1 µM) | relative viability ([4]; first compound 0.04 µM) | relative viability ([4]; first compound 0.4 µM) | relative viability ([4]; first compound 1.265 µM) | relative viability ([4]; first compound 4 µM) | relative viability ([4]; first compound 0.1265 µM)
NCI-H2347 | 0.577 | 0.336 | 0.454 | 0.425 | 0.344 | 0.397 | 0.353 | 0.425 | 0.454 | 0.44 | 1.06 | 1.05 | 0.902 | 1.04 | 0.777 | 0.592 | 0.742 | 0.516 | 0.444 | –
NCI-H2405 | 0.71 | 0.656 | 0.638 | 0.619 | 0.577 | 1.02 | 1.01 | 0.997 | 1.1 | 1.16 | 0.991 | 1.05 | 1.01 | 0.906 | 0.69 | 0.457 | 0.416 | 0.305 | 0.415 | 0.708
NCI-H3122 | 0.894 | 1.05 | 0.867 | 0.943 | 0.384 | 0.227 | 0.238 | 0.191 | 0.203 | 0.216 | 1.01 | 1.04 | 0.993 | 0.952 | 0.968 | 0.669 | 0.585 | 0.55 | 0.588 | 0.674
PC-3 [JPC-3] | 0.798 | 0.804 | 0.75 | 0.76 | 0.736 | 1.03 | – | 1.08 | 1.17 | 0.96 | 0.981 | 0.987 | 0.911 | 1.01 | 0.941 | 0.659 | 0.708 | 0.671 | 0.768 | 0.905
PC-14 | 0.828 | 0.962 | 0.704 | 0.471 | 0.0328 | 0.0843 | 0.143 | 0.13 | 0.131 | 0.146 | 1.09 | 0.97 | 0.884 | 0.774 | 0.332 | 0.826 | 0.487 | 0.438 | 0.652 | 0.918
RERF-LC-KJ | 0.618 | 0.609 | 0.537 | 0.565 | 0.488 | 0.488 | 0.346 | 0.444 | 0.514 | 0.479 | 0.972 | 0.932 | 0.843 | 0.891 | 0.967 | 0.526 | 0.516 | 0.461 | 0.431 | 0.573
SK-LU-1 | 0.388 | 0.399 | 0.406 | 0.341 | 0.276 | 1.11 | 1.01 | 0.969 | 0.956 | 1.18 | 1.18 | 0.559 | 1.14 | 0.912 | 0.58 | 0.632 | 0.54 | 0.497 | 0.498 | 0.796
SK-MES-1 | 0.679 | 0.666 | 0.557 | 0.498 | 0.152 | 1.02 | 1.01 | 0.901 | 0.964 | 1.03 | 1.14 | 1.05 | 1.01 | 0.812 | 0.552 | 0.349 | 0.284 | 0.391 | 0.383 | 0.441
SW 1573 | 0.919 | 0.85 | 0.571 | 0.509 | 0.143 | 0.981 | 0.954 | 0.844 | 0.826 | 0.908 | 0.902 | 0.796 | 0.704 | 0.683 | 0.35 | 0.544 | 0.428 | 0.474 | 0.486 | 0.486
